In ChEMBL document CHEMBL5150038, “Small-Molecule Receptor-Interacting Protein 1 (RIP1) Inhibitors as Therapeutic Agents for Multifaceted Diseases: Current Medicinal Chemistry Insights and Emerging Opportunities” (J Med Chem, 2022) one finds hepatocyte CLint and CLH data, which are given here for 1 molecule.

Series [1] can be described thus: Metabolic clearance in rat hepatocyte assessed as clearance measured per 10^6 cells. It counts as ADME, cell-based. Conditions: hepatocytes, read-out: CLH.
A further series relates to Hepatocyte. The experiment in a line: Metabolic clearance in human hepatocyte assessed as clearance. It counts as ADME, cell-based. The following applies: hepatocytes.

For the molecule `O=C(c1cnn(Cc2ccccc2)c1)N1CCOc2ccccc2C1`, the hepatocyte CLint in series [1] was 87 µL/min/1e6 cells. Moreover, the CLH in the series with Hepatocyte came out at 42 µL/min/mg.
